Target: T1, V331C LacY (lactose permease), MIANS- or DACM-labelled (Escherichia coli, UniProt P02920, E325Q/K319L/V331C)
T1 sequence (P02920 1-417 K319L/E325Q/V331C): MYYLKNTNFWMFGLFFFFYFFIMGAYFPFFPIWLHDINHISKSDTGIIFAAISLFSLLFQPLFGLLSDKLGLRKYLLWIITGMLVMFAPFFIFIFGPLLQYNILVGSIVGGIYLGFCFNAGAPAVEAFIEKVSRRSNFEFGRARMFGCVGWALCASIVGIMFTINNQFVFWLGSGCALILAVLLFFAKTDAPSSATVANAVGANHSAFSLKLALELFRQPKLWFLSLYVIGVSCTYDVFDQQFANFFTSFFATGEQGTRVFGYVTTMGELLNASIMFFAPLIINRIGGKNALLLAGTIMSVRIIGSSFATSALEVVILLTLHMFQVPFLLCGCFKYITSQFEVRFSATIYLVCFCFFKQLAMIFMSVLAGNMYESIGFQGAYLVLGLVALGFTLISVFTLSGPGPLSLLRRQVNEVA
Experiment: stopped-flow Trp to NPG FRET, kobs vs NPG
Format: binding

O=[N+]([O-])c1ccc(O[C@H]2O[C@H](CO)[C@H](O)[C@H](O)[C@H]2O)cc1 [NPG, 4-nitrophenyl α-D-galactopyranoside]
Kd: 8.3 µM

— publication PMC2769999 (Biochemistry, 2009)
